The record followed here is patent publication US8969388B1, “Substituted pyrazolone compounds and methods of use” (Calitor Sciences, LLC, priority 2012, dated 2015).

Each structure is given as a SMILES string. Like-named read-outs stand apart in the source and are kept apart here.

What is called Kd is the constant that tells how readily two partners part at equilibrium. Read a high Kd as a looser complex. Broadly, the AUC(0-t) is exposure summed from dosing to a finite time, without extrapolation to infinity. Low readings indicate low exposure, high ones high exposure. Usually half-life stands for how long it takes for the measured level to halve. Low readings indicate rapid decline, high ones slow decline.

The target in one data set is T1, KDR (h) (Homo sapiens, UniProt P35968).
T1 construct: host or cells: E. coli BL21-derived host (T7 phage) or HEK-293
T1 sequence (P35968 20-1356): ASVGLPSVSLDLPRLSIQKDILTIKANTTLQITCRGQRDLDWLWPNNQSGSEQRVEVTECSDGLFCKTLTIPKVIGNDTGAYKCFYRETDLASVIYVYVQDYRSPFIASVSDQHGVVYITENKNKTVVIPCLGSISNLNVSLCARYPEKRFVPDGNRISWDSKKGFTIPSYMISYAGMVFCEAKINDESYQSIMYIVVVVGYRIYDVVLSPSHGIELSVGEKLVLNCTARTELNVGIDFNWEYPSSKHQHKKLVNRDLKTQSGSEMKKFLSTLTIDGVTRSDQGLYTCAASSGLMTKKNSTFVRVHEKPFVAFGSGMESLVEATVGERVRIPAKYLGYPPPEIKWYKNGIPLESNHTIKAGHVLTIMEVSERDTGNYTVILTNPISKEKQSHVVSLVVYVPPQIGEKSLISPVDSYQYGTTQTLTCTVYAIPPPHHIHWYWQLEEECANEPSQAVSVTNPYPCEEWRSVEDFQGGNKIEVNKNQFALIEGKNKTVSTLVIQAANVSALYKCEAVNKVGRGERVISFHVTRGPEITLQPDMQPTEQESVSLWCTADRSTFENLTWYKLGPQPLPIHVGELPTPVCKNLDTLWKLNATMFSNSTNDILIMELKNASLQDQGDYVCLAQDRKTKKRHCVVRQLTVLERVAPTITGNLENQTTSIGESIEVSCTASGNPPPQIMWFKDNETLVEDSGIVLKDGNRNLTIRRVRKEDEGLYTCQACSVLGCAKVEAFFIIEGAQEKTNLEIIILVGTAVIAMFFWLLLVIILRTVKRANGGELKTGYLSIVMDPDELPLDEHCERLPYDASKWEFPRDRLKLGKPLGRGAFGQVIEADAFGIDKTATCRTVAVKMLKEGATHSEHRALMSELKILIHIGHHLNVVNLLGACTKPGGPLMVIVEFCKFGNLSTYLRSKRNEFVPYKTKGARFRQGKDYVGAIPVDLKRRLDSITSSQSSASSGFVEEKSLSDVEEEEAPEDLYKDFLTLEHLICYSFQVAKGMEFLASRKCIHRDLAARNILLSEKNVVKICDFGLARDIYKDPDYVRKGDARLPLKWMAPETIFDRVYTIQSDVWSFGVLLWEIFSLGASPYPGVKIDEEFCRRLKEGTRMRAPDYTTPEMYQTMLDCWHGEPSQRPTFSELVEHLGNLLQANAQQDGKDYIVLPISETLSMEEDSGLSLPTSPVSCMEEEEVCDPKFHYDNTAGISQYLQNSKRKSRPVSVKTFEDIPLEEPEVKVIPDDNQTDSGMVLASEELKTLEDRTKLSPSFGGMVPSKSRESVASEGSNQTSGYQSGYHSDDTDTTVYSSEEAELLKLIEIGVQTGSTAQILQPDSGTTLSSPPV
The data set is described as follows: KINOMEscan competition binding assay, KDR (h). As to the method:
(§1) Alternatively, the kinase activities of the compounds can be measured using KINOMEscan™, which is based on a competition binding assay that quantitatively measures the ability of a compound to compete with an immobilized, active-site directed ligand. The assay was performed by combining three components: DNA-tagged kinase; immobilized ligand; and a test compound. The ability of the test compound to compete with the immobilized ligand was measured via quantitative PCR of the DNA tag.
(§2) For most assays, kinase-tagged T7 phage strains were prepared in an E. coli host derived from the BL21 strain. E. coli were grown to log-phase and infected with T7 phage and incubated with shaking at 32° C. until lysis. The lysates were centrifuged and filtered to remove cell debris. The remaining kinases were produced in HEK-293 cells and subsequently tagged with DNA for qPCR detection. Streptavidin-coated magnetic beads were treated with biotinylated small molecule ligands for 30 minutes at room temperature to generate affinity resins for kinase assays. The liganded beads were blocked with excess biotin and washed with blocking buffer (SEABLOCK™ (Pierce), 1% BSA, 0.05% TWEEN®20, 1 mM DTT) to remove unbound ligand and to reduce nonspecific binding. Binding reactions were assembled by combining kinases, liganded affinity beads, and test compounds in 1× binding buffer (20% SEABLOCK™, 0.17×PBS, 0.05% TWEEN®20, 6 mM DTT). All reactions were performed in polystyrene 96-well plates in a final volume of 0.135 mL. The assay plates were incubated at room temperature with shaking for 1 hour and the affinity beads were washed with wash buffer (1×PBS, 0.05% TWEEN®20). The beads were then re-suspended in elution buffer (1×PBS, 0.05% TWEEN®20, 0.5 μM non-biotinylated affinity ligand) and incubated at room temperature with shaking for 30 minutes. The kinase concentration in the eluates was measured by qPCR.
(§3) The kinase assays described herein were performed using KINOMEscan™ Profiling Service at DiscoveRx Corporation, 42501 Albrae St. Fremont, Calif.

For a further data set, the target named is T2, c-Met (h) (Homo sapiens, UniProt P08581).
T2 construct: host or cells: E. coli BL21-derived host (T7 phage) or HEK-293
T2 sequence (P08581 25-1390): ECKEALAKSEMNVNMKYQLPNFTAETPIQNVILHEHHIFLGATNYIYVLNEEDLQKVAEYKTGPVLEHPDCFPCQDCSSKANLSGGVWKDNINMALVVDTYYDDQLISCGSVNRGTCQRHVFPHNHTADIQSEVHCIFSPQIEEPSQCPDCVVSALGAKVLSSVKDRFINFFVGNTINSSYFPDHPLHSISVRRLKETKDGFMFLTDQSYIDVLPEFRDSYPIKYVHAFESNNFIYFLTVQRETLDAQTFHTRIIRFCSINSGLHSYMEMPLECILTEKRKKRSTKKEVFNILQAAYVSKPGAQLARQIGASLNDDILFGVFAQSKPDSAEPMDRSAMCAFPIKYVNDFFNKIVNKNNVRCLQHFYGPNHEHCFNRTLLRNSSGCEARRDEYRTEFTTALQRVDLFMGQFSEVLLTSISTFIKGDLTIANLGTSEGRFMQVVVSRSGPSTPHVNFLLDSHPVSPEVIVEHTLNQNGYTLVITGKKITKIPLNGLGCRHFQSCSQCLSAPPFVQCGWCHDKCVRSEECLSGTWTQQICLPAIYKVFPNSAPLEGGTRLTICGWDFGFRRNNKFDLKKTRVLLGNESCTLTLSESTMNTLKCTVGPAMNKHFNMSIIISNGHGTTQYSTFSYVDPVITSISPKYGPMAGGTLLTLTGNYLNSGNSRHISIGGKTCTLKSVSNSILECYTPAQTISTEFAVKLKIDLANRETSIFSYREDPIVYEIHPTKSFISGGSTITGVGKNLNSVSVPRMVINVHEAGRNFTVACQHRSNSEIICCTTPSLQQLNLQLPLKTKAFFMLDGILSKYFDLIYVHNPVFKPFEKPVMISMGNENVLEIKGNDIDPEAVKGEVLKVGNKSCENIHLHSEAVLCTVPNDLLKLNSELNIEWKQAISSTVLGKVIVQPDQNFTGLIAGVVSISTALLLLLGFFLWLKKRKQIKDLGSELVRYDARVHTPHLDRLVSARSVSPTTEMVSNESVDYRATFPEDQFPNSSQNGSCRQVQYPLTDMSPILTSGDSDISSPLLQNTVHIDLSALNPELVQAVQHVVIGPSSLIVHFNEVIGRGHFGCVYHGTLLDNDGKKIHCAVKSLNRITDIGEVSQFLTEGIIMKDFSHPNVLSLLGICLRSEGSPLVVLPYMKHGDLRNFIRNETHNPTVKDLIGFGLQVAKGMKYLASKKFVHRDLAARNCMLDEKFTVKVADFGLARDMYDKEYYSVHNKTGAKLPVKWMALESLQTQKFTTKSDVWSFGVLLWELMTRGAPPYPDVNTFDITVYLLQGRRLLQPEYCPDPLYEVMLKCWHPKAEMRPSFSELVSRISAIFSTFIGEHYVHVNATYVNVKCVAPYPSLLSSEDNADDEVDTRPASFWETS
The data set is described as follows: KINOMEscan competition binding assay, c-Met (h). As to the method:
as §1, §2, §3

Data set [1] is described as follows: Pharmacokinetics after intravenous and oral administration in rats. It is filed as in vivo. To be noted: for F: oral bioavailability, oral dose not given; for AUC(0-t) / half-life / Vd: rat, plasma; for clearance (CL) after iv dosing / AUC(0-t) / half-life / Vd: iv dosing; for Vd: read-out: Vss. As to the method:
The compounds disclosed herein are assessed in pharmacokinetic studies in mice, rats, dogs or monkeys. The compounds are administered as a water solution, 2% HPMC+1% TWEEN®80 in water solution, 5% DMSO+5% solutol in saline, 4% MC suspension or capsule. For the intravenous administration, the animals are generally given at 1 or 2 mg/kg dose. For the oral (p.o.) dosing, mice and rats are generally given 5 or 10 mg/kg dose, and dogs and monkeys are generally given 10 mg/kg dose. The blood samples (0.3 mL) are drawn at 0.25, 0.5, 1.0, 2.0, 3.0, 4.0, 6.0, 8.0, 12 and 24 h time points or 0.083, 0.25, 0.5, 1.0, 2.0, 4.0, 6.0, 8.0 and 24 h time points and centrifuged at 3,000 or 4000 rpm for 2 to 10 min. The plasma solutions are collected, stored at −20° C. or −70° C. until analyzed by LC/MS/MS as described above.

For a further data set, the system named is U87MG glioblastoma cells. The data set is described as follows: U87MG tumor xenograft model, tumor growth inhibition. It is filed as in vivo, athymic nude mice (BALB/cA nu/nu). To be noted: mice, oral gavage, 12 days. As for the experimental part: The efficacy of compounds disclosed herein was evaluated in a standard murine model of tumorigenesis. Human tumor cells (U87MG glioblastoma cells from ATCC) were expended in culture, harvested, and injected subcutaneously onto the rear flank of 6-7 week old female athymic nude mice (BALB/cA nu/nu, Hunan SLAC Laboratory Animal, Co.) (n=6-10 for vehicle group and for each dosing group). When tumors reached a volume of 100-250 mm^3, animals were randomly divided into vehicle control (for example, 5% DMSO+70% Captisol® (30%), 7% HCl (pH1), 18% Captisol® (30%); or 7% DMSO, 7% HCl (pH1), 70% Captisol® (30%), 16% Captisol® (30%), or the like) and compound groups. Subsequent administration of compound by oral gavage begins anywhere from day 0 to day 15 post tumor cell challenge and generally continues with once a day for the duration of the experiment.
Progression of tumor growth is assessed by tumor volumes and recorded as a function of time. The long (L) and short (W) axes of the subcutaneous tumors were measured with calipers twice weekly, and the tumor volume (TV) calculated as (L×W^2)/2). TGI was calculated from the difference between the median tumor volumes of vehicle-treated and drug-treated mice, expressed as a percentage of the median tumor volume of the vehicle-treated control group, by the following relation:
[formula] Initial statistical analysis is done by repeated measures analysis of variance (RMANOVA), followed by Scheffe psot hoc testing for multiple comparisons. Vehicle alone (5% DMSO+70% Captisol® (30%), 7% HCl (pH1), 18% Captisol® (30%); or 7% DMSO, 7% HCl (pH1), 70% Captisol® (30%), 16% Captisol® (30%), or the like) is the negative control.

On KDR (h), `CC(=O)Nc1cc(Oc2ccc(NC(=O)c3c(C)n(C)n(-c4ccccc4)c3=O)cc2F)ccn1` [Ex. 23, N-(4-((2-acetamidopyridin-4-yl)oxy)-3-fluorophenyl)-1,5-dimethyl-3-oxo-2-phenyl-2,3-dihydro-1H-pyrazole-4-carboxamide] displayed a dissociation constant Kd of 13 nM. Binding at c-Met (h) was characterised by a dissociation constant (Kd) of 5.1 nM. Also, in data set [1] (2 mg/kg), the “clearance (CL) after iv dosing” value amounted to 0.5 mL/min/kg, the AUC(0-t) is 56600 ng·h/mL, the half-life is 4.4 h and the Vd came out at 0.18 L/kg. Moreover, the F in data set [1] (iv dose 2 mg/kg) was 69.7%.
The compound `Cc1c(C(=O)Nc2ccc(Oc3ccnc(N)c3)c(F)c2F)c(=O)n(-c2ccccc2)n1C` [Ex. 5, N-(4-((2-aminopyridin-4-yl)oxy)-2,3-difluorophenyl)-1,5-dimethyl-3-oxo-2-phenyl-2,3-dihydro-1H-pyrazole-4-carboxamide] yielded a dissociation constant Kd at KDR (h) of 3300 nM. On c-Met (h), the affinity, expressed as Kd, was 37 nM. Also, in data set [1] (2 mg/kg), the “clearance (CL) after iv dosing” value was determined as 31.2 mL/min/kg, the exposure AUC(0-t) was found to be 1080 ng·h/mL, the half-life was 0.31 h and the Vd worked out at 0.53 L/kg. In addition, the F in data set [1] (iv dose 2 mg/kg) is 19.1%.
For the compound `Cc1c(C(=O)Nc2cc(F)c(Oc3ccnc(NC(=O)N4CCOCC4)c3)cc2F)c(=O)n(-c2ccccc2)n1C` [Ex. 10, N-(4-(4-(1,5-dimethyl-3-oxo-2-phenyl-2,3-dihydro-1H-pyrazole-4-carboxamido)-2,5-difluorophenoxy)pyridin-2-yl)morpholine-4-carboxamide], in data set [1] (1 mg/kg), the “clearance (CL) after iv dosing” value amounted to 1.83 mL/min/kg, the AUC(0-t) was 9640 ng·h/mL, the half-life is 4.6 h and the Vd worked out at 0.53 L/kg. The F in data set [1] (iv dose 1 mg/kg) is recorded as 83.2%.
Regarding `CC(=O)Nc1nccc(Oc2ccc(NC(=O)c3c(C)n(C)n(-c4ccccc4)c3=O)cc2F)c1Cl` [Ex. 4, N-(4-((2-acetamido-3-chloropyridin-4-yl)oxy)-3-fluorophenyl)-1,5-dimethyl-3-oxo-2-phenyl-2,3-dihydro-1H-pyrazole-4-carboxamide], the dissociation constant Kd amounted to 540 nM on KDR (h) and 24 nM at c-Met (h).
On the same counts, the results for `CC(=O)Nc1nccc(Oc2ccc(NC(=O)c3c(C)n(C)n(-c4ccccc4)c3=O)nc2)c1Cl` [Ex. 20, N-(5-((2-acetamido-3-chloropyridin-4-yl)oxy)pyridin-2-yl)-1,5-dimethyl-3-oxo-2-phenyl-2,3-dihydro-1H-pyrazole-4-carboxamide] are 1600 nM and 620 nM.
`CC(=O)Nc1cc(Oc2cc(F)c(NC(=O)c3c(C)n(C)n(-c4ccccc4)c3=O)cc2F)ccn1` [Ex. 9, N-(4-((2-acetamidopyridin-4-yl)oxy)-2,5-difluorophenyl)-1,5-dimethyl-3-oxo-2-phenyl-2,3-dihydro-1H-pyrazole-4-carboxamide] registered a Kd on KDR (h) of 160 nM. Binding on c-Met (h) was characterised by a dissociation constant (Kd) of 1.8 nM. Also, in data set [1] (1 mg/kg), the “clearance (CL) after iv dosing” value was 0.67 mL/min/kg, the area under the curve AUC(0-t) worked out at 23300 ng·h/mL, the half-life is 4.76 h and the Vd worked out at 0.24 L/kg. The compound also showed a F in data set [1] (iv dose 1 mg/kg) of 61.2%.
As to `[2H]c1cc(Oc2ccnc(N)c2)ccc1NC(=O)c1c(C)n(C)n(-c2ccccc2)c1=O` [Ex. 15, N-(4-((2-aminopyridin-4-yl)oxy)-2-deuteriumphenyl)-1,5-dimethyl-3-oxo-2-phenyl-2,3-dihydro-1H-pyrazole-4-carboxamide], the figures for the dissociation constant Kd at KDR (h) and on c-Met (h) were 3800 nM and 180 nM, respectively.
The corresponding values for `CC(=O)Nc1cc(Oc2ccc(NC(=O)c3c(C)n(C)n(-c4ccccc4)c3=O)c(Cl)c2)ccn1` [Ex. 13, N-(4-((2-acetamidopyridin-4-yl)oxy)-2-chlorophenyl)-1,5-dimethyl-3-oxo-2-phenyl-2,3-dihydro-1H-pyrazole-4-carboxamide] are 570 nM and 18 nM.
Turning to `Cc1c(C(=O)Nc2cc(F)c(Oc3ccnc(N)c3Cl)cc2F)c(=O)n(-c2ccccc2)n1C` [Ex. 11, N-(4-((2-amino-3-chloropyridin-4-yl)oxy)-2,5-difluorophenyl)-1,5-dimethyl-3-oxo-2-phenyl-2,3-dihydro-1H-pyrazole-4-carboxamide], the Kd on KDR (h) is 340 nM. On c-Met (h), this compound returned a dissociation constant (Kd) of 1.4 nM. Moreover, in data set [1] (2 mg/kg), the “clearance (CL) after iv dosing” value came out at 9.5 mL/min/kg, the area under the curve AUC(0-t) was found to be 3340 ng·h/mL, the half-life is 2.9 h and the Vd was 1.17 L/kg. The compound further returned a F in data set [1] (iv dose 2 mg/kg) of 88.0%.
Take `CC(=O)Nc1nccc(Oc2ccc(NC(=O)c3c(C)n(C)n(-c4ccccc4)c3=O)cc2)c1Cl` [Ex. 21, N-(4-((2-acetamido-3-chloropyridin-4-yl)oxy)phenyl)-1,5-dimethyl-3-oxo-2-phenyl-2,3-dihydro-1H-pyrazole-4-carboxamide]: the Kd at KDR (h) is 1100 nM; at c-Met (h) it was 120 nM.
Turning to `Cc1c(C(=O)Nc2ccc(Oc3ccnc(N)c3Cl)cn2)c(=O)n(-c2ccccc2)n1C` [Ex. 19, N-(5-((2-amino-3-chloropyridin-4-yl)oxy)pyridin-2-yl)-1,5-dimethyl-3-oxo-2-phenyl-2,3-dihydro-1H-pyrazole-4-carboxamide], the Kd at KDR (h) was 26 nM; at c-Met (h), 16 nM. Besides, the figures for the “TGI % (on last day of dosing)” value with U87MG glioblastoma cells (6 mg/kg), with U87MG glioblastoma cells (20 mg/kg) and in the data set on U87MG glioblastoma cells (60 mg/kg) were 22%, 49% and 103%, respectively.
`Cc1c(C(=O)Nc2ccc(Oc3ccnc(N)c3)cc2Cl)c(=O)n(-c2ccccc2)n1C` [Ex. 12, N-(4-((2-aminopyridin-4-yl)oxy)-2-chlorophenyl)-1,5-dimethyl-3-oxo-2-phenyl-2,3-dihydro-1H-pyrazole-4-carboxamide]: binding on KDR (h) was characterised by a dissociation constant (Kd) of 19000 nM. Besides, binding at c-Met (h) was put at a Kd of 56 nM. In data set [1] (2 mg/kg), the “clearance (CL) after iv dosing” value amounted to 15.7 mL/min/kg, the AUC(0-t) came to 2120 ng·h/mL, the half-life is 1.56 h and the Vd was 0.69 L/kg. In data set [1] (iv dose 2 mg/kg), this compound displayed an F of 125.0%.
For `Cc1c(C(=O)Nc2ccc(Oc3ccnc(N)c3)cn2)c(=O)n(-c2ccccc2)n1C` [Ex. 16, N-(5-((2-aminopyridin-4-yl)oxy)pyridin-2-yl)-1,5-dimethyl-3-oxo-2-phenyl-2,3-dihydro-1H-pyrazole-4-carboxamide], the Kd at KDR (h) is 1800 nM; on c-Met (h), 200 nM.
